Experimental data published in patent publication US20070071746A1, “C/CLP antagonists and methods of use thereof” (MEDIMMUNE, INC., priority 2005, published 2007).
Entries after “also recorded” stand apart in the source; their conditions may differ.

Legend:
[1] = biological target: T1, human AMCase / human galectin 4 (Homo sapiens, UniProt P56470); test: C/CLP-Galectin Interaction ELISA; format: binding
T1 construct: 6xHis (C); made in house; host or cells: HEK293 (AMCase)
T1 sequence (P56470 1-323): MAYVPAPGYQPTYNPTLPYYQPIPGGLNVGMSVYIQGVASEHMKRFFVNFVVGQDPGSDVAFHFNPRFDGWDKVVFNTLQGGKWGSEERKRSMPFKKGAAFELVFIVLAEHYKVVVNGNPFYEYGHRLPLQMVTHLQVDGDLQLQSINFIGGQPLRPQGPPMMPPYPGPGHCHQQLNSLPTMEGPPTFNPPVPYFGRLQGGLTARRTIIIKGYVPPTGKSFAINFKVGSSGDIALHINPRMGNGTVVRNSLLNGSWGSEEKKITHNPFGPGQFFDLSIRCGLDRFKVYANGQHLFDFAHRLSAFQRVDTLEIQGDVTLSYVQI
Protocol: (§1) C/CLP-Galectin Interaction ELISA: Galectin is immobilized on a microtiter plate in DPBS over night at 2-8° C. The plates are then washed with DPBS, 0.1% Tween 20 and blocked for 1 hour at room temperature. Serial dilutions of biotin labeled AMCase are added to each well and incubated for ˜1 hour at room temperature followed by HRP labeled streptavidin. Horseradish peroxydase activity is detected with TMB substrate (KPL, MD) and the reaction is quenched with 1% H2SO4. The absorbance is read at 450 nm.

Jurkat T cells = test: Galectin-3 induced apoptosis in Jurkat T cells; format: cell-based, human
[2] = 4-Mu-Chitotrioside assay, activity of recombinant AMCase proteins; format: biochemical; details: 4-Mu-Chitotrioside assay (soluble substrate)
Protocol: Activity Assays Used: Chitinase activity was assayed using two different but commonly used assays. One assay (4-Mu-Chitotrioside assay) utilized 4-methylumbelliferyl-β-D-N,N′,N″-triacetylchitotrise as a substrate (see, e.g., Hollak et al., 1994, J. Clin. Invest. 93: 1288-92). The other (chitin-azure assay) utilized chitin azure as a substrate (see, e.g., Thompson et al., (2001) Appl Environ Microbiol. 67:4001-4008).

galectin 1 = galectin 1 (Homo sapiens, UniProt P09382); test: C/CLP-Galectin Interaction ELISA; format: binding
Sequence of galectin 1 (P09382 2-135 limits assumed): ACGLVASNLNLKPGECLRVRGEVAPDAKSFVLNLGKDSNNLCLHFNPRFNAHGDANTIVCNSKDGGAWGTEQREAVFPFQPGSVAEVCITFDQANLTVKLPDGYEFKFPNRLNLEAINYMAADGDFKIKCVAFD
Protocol: as §1

galectin 2 = biological target: T2, galectin 2 (Homo sapiens, UniProt P05162); test: C/CLP-Galectin Interaction ELISA; format: binding
T2 sequence (P05162 1-132): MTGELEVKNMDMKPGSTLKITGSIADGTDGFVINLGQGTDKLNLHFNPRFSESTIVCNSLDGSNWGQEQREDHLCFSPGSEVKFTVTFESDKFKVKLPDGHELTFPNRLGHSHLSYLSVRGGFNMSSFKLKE
Protocol: as §1

galectin 7 = galectin 7 (Homo sapiens, UniProt P47929); test: C/CLP-Galectin Interaction ELISA; format: binding
Sequence of galectin 7 (P47929 whole entry): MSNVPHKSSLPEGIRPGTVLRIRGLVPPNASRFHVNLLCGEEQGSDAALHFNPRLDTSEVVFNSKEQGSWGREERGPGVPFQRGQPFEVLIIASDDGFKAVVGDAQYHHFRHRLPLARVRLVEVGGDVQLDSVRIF
Protocol: as §1

galectin 8 = biological target: T3, galectin 8 (Homo sapiens, UniProt O00214); test: C/CLP-Galectin Interaction ELISA; format: binding
T3 sequence (O00214 1-317): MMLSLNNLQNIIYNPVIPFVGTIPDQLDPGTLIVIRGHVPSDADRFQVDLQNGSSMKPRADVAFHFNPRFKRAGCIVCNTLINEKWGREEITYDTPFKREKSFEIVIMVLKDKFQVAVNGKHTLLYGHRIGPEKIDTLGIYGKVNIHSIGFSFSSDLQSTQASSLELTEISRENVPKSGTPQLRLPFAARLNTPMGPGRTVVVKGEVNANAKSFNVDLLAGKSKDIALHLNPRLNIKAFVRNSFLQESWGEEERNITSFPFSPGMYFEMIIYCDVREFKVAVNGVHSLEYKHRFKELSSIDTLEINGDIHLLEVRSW
Protocol: as §1

[3] = system: human AMCase / human galectin 3; test: C/CLP-Galectin Interaction ELISA; format: binding; details: listed as full length human AMCase
Protocol: as §1

[4] = system: memory T cells isolated from human blood; test: Galectin-3 induced apoptosis in memory T cells; format: cell-based
Jurkat cells = test: Galectin Induced Calcium Flux; format: cell-based, human; details: for inhibition of galectin-3 induced calcium flux: 200 μg/ml, versus 100 μg/ml; for calcium flux in Jurkat cells: galectin-3 40 μg/ml
Protocol: Galectin Induced Calcium Flux: Jurkat cells were labeled with Fluo-4AM and Fura-Red. galectin-3 (40 μg/ml) was added to the cells and Ca flux was analyzed as FL1/FL3. Analysis was performed for 5 minutes. For interaction analysis gal-3 (40μg/ml) is pre-incubated with huAMCase (100-200 μg/ml) or huChTrase (100-200 μg/ml) for 15 mins at RT prior to addition.

peritoneal macrophages = test: Cytokine induction assay with recombinant mYKL-40; format: cell-based, mouse; details: for secretion of IL-6 / secretion of KC: increasing amounts of recombinant mYKL-40
Protocol: Isolation of peritoneal macrophaaes: 4-6 week old Balb/c mice were injected i.p. with 1 ml of fluid thioglyclollate medium (Becton, Dickinson and Company, Sparks, Md.). 4 days later peritoneal macrophages were harvested by lavage (ice-cold PBS w/o Ca, Mg, 10 ml/mouse). Cells were washed with PBS twice and resuspended in 10% FBS/RPMI 1640 medium (Glutamax, 25 mM Hepes, 1×antibiotic-antimycotic (Invitrogen, Grand Island, N.Y.) at 2.5×10^6 cells/ml. Cells were plated in 96 well TC plates (100 μl/well). After overnight incubation at 37° C. nonadherent cells were removed by washing with serum free RPMI 1640. 100 μl/well of 10% FBS/RPMI 1640 were added and cells were cultured for 72 hr.
Cytokine Induction Assays: isolated peritoneal macrophages (described above) were washed with PBS, proteins and antibodies, concentrated supernatants, were added in 2% FBS/RPMI 1640, 100 μl/well. After 18 hr incubation supernatants were collected and cytokine concentrations were measured using mouse cytokine multiplex kit (Upstate, Lake Placid, N.Y.) on Luminex 100.

[5] = biological target: T4, mouse AMCase / mouse galectin-3 (Mus musculus, UniProt Q91XA9); test: C/CLP-Galectin Interaction ELISA; format: binding; details: data not shown
T4 construct: 6xHis (C); made in house; host or cells: HEK293 (FreeStyle 293), secreted and purified on nickel NTA
T4 sequence (Q91XA9 22-473): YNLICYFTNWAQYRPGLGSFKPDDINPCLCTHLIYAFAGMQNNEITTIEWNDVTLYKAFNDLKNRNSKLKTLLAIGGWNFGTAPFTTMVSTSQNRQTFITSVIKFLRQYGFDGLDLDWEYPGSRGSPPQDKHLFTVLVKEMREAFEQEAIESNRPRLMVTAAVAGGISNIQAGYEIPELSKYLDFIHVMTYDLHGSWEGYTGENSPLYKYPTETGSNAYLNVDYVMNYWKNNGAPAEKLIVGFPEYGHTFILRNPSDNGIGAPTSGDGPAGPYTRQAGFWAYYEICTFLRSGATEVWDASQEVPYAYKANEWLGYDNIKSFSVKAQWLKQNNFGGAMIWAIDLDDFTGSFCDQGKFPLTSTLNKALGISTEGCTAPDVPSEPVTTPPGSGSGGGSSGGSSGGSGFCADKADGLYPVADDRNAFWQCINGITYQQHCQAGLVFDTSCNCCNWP
Protocol: as §1

[6] = biological target: T5, mouse AMCase / mouse galectin-4 (Mus musculus, UniProt Q91XA9); test: C/CLP-Galectin Interaction ELISA; format: binding; details: data not shown
T5 construct: 6xHis (C); made in house; host or cells: HEK293 (FreeStyle 293), secreted and purified on nickel NTA
T5 sequence (Q91XA9 22-473): as above
Protocol: as §1

[7] = listed as recombinant mouseYKL-40

## OC[C@H]1O[C@@H](O[C@H]2[C@H](O)[C@@H](O)C(O)O[C@@H]2CO)[C@H](O)[C@@H](O)[C@H]1O (some centres unmarked) [lactose, reference compound]
[1]
  inhibition of binding of Human AMCase to Galectin 4: inhibited
Jurkat T cells; addition of lactose
  effect on galectin-3 induced apoptosis of Jurkat T cells: abolished; also recorded: reduced the levels of apoptosis seen to nearly background levels

## AMCase-TR: recombinant AMCase protein lacking the CBD
[2]
  activity of recombinant AMCase proteins: high activity
[2]; listed as truncated form
  activity of recombinant AMCase proteins: active

## AMCase: recombinant human acidic mammalian chitinase
Galectin 1
  binding of AMCase to galectin 1: not
Galectin 2
  binding of AMCase to galectin 2: not
Galectin 7
  binding of AMCase to galectin 7: not
Galectin 8
  binding of AMCase to galectin 8: not
[3]
  binding of AMCase to galectin 3: confirmed; also recorded: binds
[1]; listed as full length human AMCase
  binding of AMCase to galectin 4: confirmed; also recorded: binds
[4]; 10 μg galectin-3, 50 μg or more of AMCase
  inhibition of galectin-3 induced apoptosis of memory T cells: inhibited; also recorded: significant inhibition
Jurkat cells
  inhibition of galectin-3 mediated calcium flux: inhibited
  inhibition of galectin-3 induced calcium flux: further inhibition

## Cht: recombinant human chitotriosidase
Jurkat cells
  inhibition of galectin-3 mediated calcium flux: inhibited
  inhibition of galectin-3 induced calcium flux: not

## D136A: AMCase full length protein containing the D136A mutation [Antibody D136A]
[2]
  activity of recombinant AMCase proteins: no activity; also recorded: completely abolished activity

## full length AMCase: recombinant full length AMCase protein
[2]
  activity of recombinant AMCase proteins: high activity; also recorded: active

## mYKL-40: recombinant mouse YKL-40/BRP-39
Peritoneal macrophages
  induction of IL-10: induced
  induction of RANTES: induced
  induction of TNF-α: induced
  secretion of IL-6: increase
  secretion of KC: increase
Peritoneal macrophages; [7]
  secretion of IL-6: dose sensitive increase
  secretion of KC: dose sensitive increase

## mouse AMCase: recombinant mouse acidic mammalian chitinase
[5]
  binding of mouse AMCase to mouse galectin-3: bind
[6]
  binding of mouse AMCase to mouse galectin-4: bind

## rhuGal-3: recombinant human Galectin 3
Jurkat T cells; 1 μg rhuGal-3
  apoptosis of Jurkat T cells: Little to no apoptosis
Jurkat T cells; 5, 10 and 30 μg rhuGal-3
  apoptosis of Jurkat T cells: increased apoptosis
Jurkat T cells; 5, 10 and 30 μg rhuGal-3, listed as Galectin-3
  apoptosis of Jurkat T cells: induce apoptosis
[4]; galectin-3 alone
  apoptosis of memory T cells: induced apoptosis
Jurkat cells; listed as Galectin
  calcium flux in Jurkat cells: results in calcium flux
Jurkat cells; listed as Galectin-3
  calcium flux in Jurkat cells: mediate calcium flux
